This is an account of results in US9776967B2, “Carboxamide derivatives as pesticidal compounds” (priority 2013, dated 2017).

Series [1] concerns Haemonchus contortus. As to the kind of experiment: In vitro assay with Haemonchus contortus (HAEMCO), larval mortality. To be noted: 120 h; for Emax at 0.8 ppm / Emax at 4 ppm / Emax at 20 ppm: HAEMCO, 5dat, comparative example, read-out: % Efficacy; for mortality at 20 ppm: read-out: activity (larval mortality). On the procedure: In Vitro Assay with Haemonchus contortus (HAEMCO)
(§1) Solvent: Dimethyl Sulfoxide
(§2) To produce a suitable preparation of active compound, 10 mg of active compound are dissolved in 0.5 ml solvent, and the concentrate is diluted with “Ringer's solution” to the desired concentration.
Approximately 40 larvae of the red stomach worm (Haemonchus contortus) are transferred into a test tube containing compound solution.
After 5 days percentage of larval mortality are recorded. 100% efficacy means all larvae are killed, 0% efficacy means no larvae are killed.

Series [2] can be described thus: LogP by HPLC on reversed phase columns (EEC directive 79/831 Annex V.A8). The series is classed as physicochemical. The protocol: Calibration was done with straight-chain alkan2-ones (with 3 to 16 carbon atoms) with known Log P values (measurement of Log P values using retention times with linear interpolation between successive alkanones). Lambda-max-values were determined using UV-spectra from 200 nm to 400 nm and the peak values of the chromatographic signals.

For series [3], the system named is Nippostrongylus brasiliensis. As to the kind of experiment: In vitro assay with Nippostrongylus brasiliensis (NIPOBR), acetylcholine esterase readout. To be noted: adult worms, read-out: activity (reduction of AChE compared to negative control); for inhibition at 1 ppm: 1 ppm (1 μg/ml); for inhibition at 10 ppm: 10 ppm (10 μg/ml). On the procedure:
In Vitro Assay with Nippostrongylus brasiliensis (NIPOBR)
Adult Nippostrongylus brasiliensis were washed with saline buffer containing 100 U/ml penicillin, 0.1 mg/ml streptomycin and 2.5 μg/ml amphotericin B. Test compounds were dissolved in DMSO and worms were incubated in medium in a final concentration of 10 μg/ml (10 ppm) respectively 1 μg/ml (1 ppm). An aliquot of the medium was used to determine the acetylcholine esterase activity in comparison to a negative control. The principle of measuring acetylcholine esterase as readout for anthelmintic activity was described in Rapson et al (1986) and Rapson et al (1987).

The subject of series [4] is Cooperia curticei. The series is described as follows: In vitro assay with Cooperia curticei (COOPCU), larval mortality. The following applies: 120 h, read-out: activity (larval mortality). The protocol: In Vitro Assay with Cooperia curticei (COOPCU)
as §1, §2
Approximately 40 nematode larvae (Cooperia curticei) are transferred into a test tube containing the compound solution.
After 5 days percentage of larval mortality is recorded. 100% efficacy means all larvae are killed; 0% efficacy means no larvae are killed.

Series [5] relates to Meloidogyne incognita. The series is described as follows: Meloidogyne incognita (MELGIN) assay, gall formation on salad seedlings. The series is classed as in vivo. To be noted: 336 h, after 14 days, read-out: nematicidal activity (percentage of gall formation; 100% = no galls). The protocol: Meloidogyne incognita (MELGIN) Assay
Solvent: 125.0 parts by weight of acetone
To produce a suitable preparation of active compound, 1 part by weight of active compound is mixed with the stated amount of solvent, and the concentrate is diluted with water to the desired concentration.
Vessels are filled with sand, a solution of the active ingredient, a suspension containing eggs and larvae of the southern root-knot nematode (Meloidogyne incognita) and salad seeds. The salad seeds germinate and the seedlings grow. Galls develop in the roots.
After 14 days the nematicidal activity is determined on the basis of the percentage of gall formation. 100% means no galls were found and 0% means the number of galls found on the roots of the treated plants was equal to that in untreated control plants.

[6] abbreviates: LC-UV, acidic range, 0.1% formic acid in water and acetonitrile, read-out: logP (HCOOH) [a].
Where [7] appears, read: reversed-phase HPLC column, LC-UV, acidic range, 0.1% formic acid in water and acetonitrile, read-out: logP (HCOOH) [a].

Where two headings read alike, the source gives them in different places.

Turning to `O=C(NCCc1ccc(-c2ccc(OC(F)(F)F)cc2)cc1)c1ccccc1C(F)(F)F` [Ex.-No. 1-49, reference compound], in series [1], the Emax at 0.8 ppm stood at 60% and the Emax at 4 ppm was 60%. Besides, the Emax at 20 ppm in series [1] (20 ppm) worked out at 80%.

In general, mortality refers to the share of the test organisms that died. Take `O=C(NCCc1ncc(-c2ccc(Cl)cc2)cc1Cl)c1ccccc1C(F)(F)F` [Example 1, N-{2-[3-chloro-5-(4-chlorophenyl)pyridin-2-yl]ethyl}-2-(trifluoromethyl)benzamide]: in series [2] (setting [6]), the chromatographic logP worked out at 3.97. Further, in series [3], the inhibition at 1 ppm is at least 60% and the inhibition at 10 ppm is at least 60%. Besides, in series [4], the mortality at 20 ppm amounted to 100%. For the same molecule, the mortality at 20 ppm in series [1] (20 ppm, after 5 days) was 100%. In series [1], the Emax at 0.8 ppm turned out to be 100% and the Emax at 4 ppm came out at 100%. In addition, the Emax at 20 ppm in series [1] (20 ppm) came to 100%. Also, the pest or weed control at 20 ppm in series [5] was found to be 100%.

In the case of `O=C(NCC(F)(F)c1ncc(-c2ccc(Cl)cc2)cc1Cl)c1ccccc1C(F)(F)F` [Example 2, N-{2-[3-chloro-5-(4-chlorophenyl)pyridin-2-yl]-2,2-difluoroethyl}-2-(trifluoromethyl)-benzamide], in series [2] (setting [6]), the chromatographic logP came out at 4.17. Moreover, the inhibition at 1 ppm in series [3] is at least 60%. For the same molecule, the mortality at 20 ppm in series [4] worked out at 100%; in series [1] (20 ppm, after 5 days), 100%.

In turn, `O=C(NCC(F)(F)c1ncc(-c2cccc(Cl)c2)cc1Cl)c1ccccc1C(F)(F)F` [Example 3] returned a chromatographic logP in series [2] (logP (HCOOH) [a]) of 4.17. For the same molecule, in series [3], the inhibition at 1 ppm is at least 60% and the inhibition at 10 ppm is at least 60%. Besides, in series [4], the mortality at 20 ppm is 100%. Moreover, the mortality at 20 ppm in series [1] is 100%.

With `O=C(NCC(F)(F)c1ncc(-c2ccc(OC(F)F)cc2)cc1Cl)c1ccccc1C(F)(F)F` [Example 4], the chromatographic logP in series [2] (logP (HCOOH) [a]) came to 3.78. Moreover, in series [3], the inhibition at 1 ppm is at least 60% and the inhibition at 10 ppm was at least 60%. In addition, the mortality at 20 ppm in series [4] was found to be 100%. For the same molecule, in series [1], the mortality at 20 ppm amounted to 100%. Besides, the pest or weed control at 20 ppm in series [5] was found to be 100%.

As for `COc1ccc(-c2cnc(C(F)(F)CNC(=O)c3ccccc3C(F)(F)F)c(Cl)c2)cc1Cl` [Example 6], in series [2] (setting [6]), the chromatographic logP came out at 3.94. In addition, the mortality at 20 ppm in series [4] worked out at 100%; in series [1] (20 ppm, after 5 days), 100%. Further, in series [5], the pest or weed control at 20 ppm is 90%.

In the case of `Cc1ccccc1-c1cnc(C(F)(F)CNC(=O)c2ccccc2C(F)(F)F)c(Cl)c1` [Example 9], the chromatographic logP in series [2] (setting [6]) came out at 4. Also, the mortality at 20 ppm was 100% in series [4] and 100% in series [1] (20 ppm, after 5 days). Further, the pest or weed control at 20 ppm in series [5] is 100%.

Turning to `O=C(NCC(F)(F)c1ncc(-c2cccc(C(F)(F)F)c2)cc1Cl)c1ccccc1C(F)(F)F` [Example 10], in series [2] (logP (HCOOH) [a]), the chromatographic logP came to 4.17. Also, in series [3], the inhibition at 1 ppm is at least 60%. Moreover, the mortality at 20 ppm in series [4] and in series [1] was 100% each time.

Turning to `O=C(NCC(F)(F)c1ncc(-c2cc(F)cc(F)c2)cc1Cl)c1ccccc1C(F)(F)F` [Example 12], the chromatographic logP in series [2] (logP (HCOOH) [a]) turned out to be 3.89. Further, the inhibition at 1 ppm in series [3] is at least 60%. Further, the inhibition at 10 ppm in series [3] is at least 60%. Moreover, the mortality at 20 ppm in series [4] and in series [1] was 100% throughout.

On to `O=C(NCC(F)(F)c1ncc(-c2ccccc2F)cc1Cl)c1ccccc1C(F)(F)F` [Example 13], for which, in series [2] (logP (HCOOH) [a]), the chromatographic logP turned out to be 3.73. For the same molecule, the inhibition at 1 ppm in series [3] is at least 60%. Also, the mortality at 20 ppm in series [4] and in series [1] was 100% in each case.

`O=C(NCC(F)(F)c1ncc(-c2ccccc2Cl)cc1Cl)c1ccccc1C(F)(F)F` [Example 16] returned a chromatographic logP in series [2] (logP (HCOOH) [a]) of 4. In series [3], the inhibition at 1 ppm is at least 60% and the inhibition at 10 ppm was at least 60%. Moreover, in series [4], the mortality at 20 ppm stood at 100%. In addition, the mortality at 20 ppm in series [1] was 100%.

Regarding `CN(C)c1ccc(-c2cnc(C(F)(F)CNC(=O)c3ccccc3C(F)(F)F)c(Cl)c2)cc1` [Example 17], the chromatographic logP in series [2] (setting [6]) stood at 4.09. The mortality at 20 ppm in series [4] was determined as 100%; in series [1] (20 ppm, after 5 days), 100%.

In the case of `O=C(NCC(F)(F)c1ncc(-c2ccc(F)cc2)cc1Cl)c1nccnc1C(F)(F)F` [Example 19], the chromatographic logP in series [2] (setting [6]) was 3.51. For the same molecule, the mortality at 20 ppm came out at 100% in series [4] and 100% in series [1] (20 ppm, after 5 days). In series [5], the pest or weed control at 20 ppm was found to be 90%.

Consider `CC(F)(CNC(=O)c1cccnc1C(F)(F)F)c1ncc(-c2ccc(Cl)cc2)cc1Cl` (stereo not shown) [Example 20], for which the chromatographic logP in series [2] (setting [6]) was 3.83.

Regarding `CC(F)(CNC(=O)c1ccccc1C(F)(F)F)c1ncc(-c2ccc(F)cc2)cc1Cl` (stereo not shown) [Example 21, N-{2-[3-chloro-5-(4-fluorophenyl)pyridin-2-yl]-2-fluoropropyl}-2-(trifluoromethyl) benzamide], in series [2] (setting [6]), the chromatographic logP worked out at 3.96. Besides, in series [5], the pest or weed control at 20 ppm was 100%.

For the molecule `Cc1ccc(-c2cnc(C(C)(F)CNC(=O)c3cccnc3C(F)(F)F)c(Cl)c2)cc1` (stereo not shown) [Example 22], the chromatographic logP in series [2] (setting [6]) was determined as 2.15.

`CC(F)(CNC(=O)c1ccccc1C(F)(F)F)c1ncc(-c2ccccc2)cc1Cl` (stereo not shown) [Example 23]: the chromatographic logP in series [2] (setting [6]) stood at 3.92.

Turning to `O=C(NCC(F)(F)c1ncc(-c2ccc3c(c2)OC(F)(F)O3)cc1Cl)c1ccccc1C(F)(F)F` [Example 25], the chromatographic logP in series [2] (setting [6]) turned out to be 4.18.

Take `O=C(NCC(F)(F)c1ncc(-c2ccc(F)cc2)cc1Cl)c1cccnc1C(F)(F)F` [Example 26]: the chromatographic logP in series [2] (setting [6]) was determined as 3.29. The pest or weed control at 20 ppm in series [5] came out at 100%.

Turning to `CC(F)(CNC(=O)c1cccnc1C(F)(F)F)c1ncc(-c2ccccc2)cc1Cl` (stereo not shown) [Example 28], the chromatographic logP in series [2] (setting [6]) came to 3.38.

In the case of `Cc1ccc(-c2cnc(C(C)(F)CNC(=O)c3ccccc3C(F)(F)F)c(Cl)c2)cc1` (stereo not shown) [Example 29], the chromatographic logP in series [2] (setting [6]) was 4.35.

For `O=C(NCC(F)(F)c1ncc(-c2ccc(N3CCCC3)cc2)cc1Cl)c1ccccc1C(F)(F)F` [Example 30], the chromatographic logP in series [2] (setting [6]) turned out to be 4.83. Besides, the mortality at 20 ppm in series [4] turned out to be 100%; in series [1] (20 ppm, after 5 days) it was 90%.

Take `CN1CCN(c2ccc(-c3cnc(C(F)(F)CNC(=O)c4ccccc4C(F)(F)F)c(Cl)c3)cc2)CC1` [Example 31]: the chromatographic logP in series [2] (setting [6]) amounted to 1.78; in series [2] (LC-UV, neutral range, 0.001 molar ammonium acetate solution in water and acetonitrile, read-out: logP [b]), 3.39. Also, the mortality at 20 ppm in series [4] stood at 100%; in series [1] (20 ppm, after 5 days), 100%.

Turning to `O=C(NCC(F)(F)c1ncc(-c2ccc(N3CCOCC3)cc2)cc1Cl)c1ccccc1C(F)(F)F` [Example 32], in series [2] (setting [6]), the chromatographic logP amounted to 3.59. For the same molecule, the mortality at 20 ppm in series [4] was determined as 100%.

For `CS(=O)(=O)c1ccc(-c2cnc(C(F)(F)CNC(=O)c3ccccc3C(F)(F)F)c(Cl)c2)cc1` [Example 33], the chromatographic logP in series [2] (setting [6]) is 2.65.

In the case of `O=C(NCC(F)(F)c1ncc(-c2ccc(F)c(C(F)(F)F)c2)cc1Cl)c1ccccc1C(F)(F)F` [Example 34], the chromatographic logP in series [2] (setting [6]) worked out at 4.19.

As for `CSc1ccc(-c2cnc(C(F)(F)CNC(=O)c3ccccc3C(F)(F)F)c(Cl)c2)cc1` [Example 35], the chromatographic logP in series [2] (setting [6]) is 4.1.

Turning to `CNc1ccc(-c2cnc(C(F)(F)CNC(=O)c3ccccc3C(F)(F)F)c(Cl)c2)cc1` [Example 36], the chromatographic logP in series [2] (setting [6]) was 3.39.

For the molecule `N#Cc1ccc(-c2cnc(C(F)(F)CNC(=O)c3ccccc3C(F)(F)F)c(Cl)c2)cc1` [Example 37], in series [2] (setting [7]), the chromatographic logP turned out to be 3.29.

For `CC(=O)Nc1ccc(-c2cnc(C(F)(F)CNC(=O)c3ccccc3C(F)(F)F)c(Cl)c2)cc1` [Example 38], the chromatographic logP in series [2] (setting [6]) is 2.7.

For the molecule `O=C(NCC(F)(F)c1ncc(-c2ccc(SC(F)(F)F)cc2)cc1Cl)c1ccccc1C(F)(F)F` [Example 39], the chromatographic logP in series [2] (setting [6]) amounted to 4.65.

As to `NCC(F)(F)c1ncc(-c2ccc(F)cc2)cc1Cl` [INT-1, 2-[3-chloro-5-(4-fluorophenyl)-2-pyridyl]-2,2-difluoro-ethanamine], the chromatographic logP in series [2] (setting [7]) was 1.18; in series [2] (reversed-phase HPLC column, LC-UV, neutral range, 0.001 molar ammonium acetate solution in water and acetonitrile, read-out: logP [b]) it was 2.61.
